Activity calls are given as the source filed them. Rule as the data show it, for most assays here: actives have a measured Kd and inactives only a lower limit.

This is an account of results in ChEMBL document CHEMBL3991601, “The target landscape of clinical kinase drugs” (Science, 2017).

For test [1], the target named is Serine/threonine-protein kinase SIK3 (Homo sapiens, UniProt Q9Y2K2).
The target in test [2] is T1, Dual specificity mitogen-activated protein kinase kinase 5 (Homo sapiens, UniProt Q13163).
T1 sequence (Q13163 whole entry): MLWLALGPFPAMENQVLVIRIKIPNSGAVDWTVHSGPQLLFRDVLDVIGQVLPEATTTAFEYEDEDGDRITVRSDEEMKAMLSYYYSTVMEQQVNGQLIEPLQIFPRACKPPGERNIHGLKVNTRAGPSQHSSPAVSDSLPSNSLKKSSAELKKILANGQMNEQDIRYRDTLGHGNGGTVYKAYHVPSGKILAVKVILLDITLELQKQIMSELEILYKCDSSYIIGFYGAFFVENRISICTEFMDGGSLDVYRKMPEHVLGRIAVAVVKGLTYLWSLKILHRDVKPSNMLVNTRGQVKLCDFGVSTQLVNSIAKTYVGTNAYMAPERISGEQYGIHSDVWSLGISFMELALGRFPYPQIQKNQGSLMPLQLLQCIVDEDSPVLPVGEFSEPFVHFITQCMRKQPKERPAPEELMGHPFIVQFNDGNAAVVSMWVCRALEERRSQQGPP

The target in test [3] is T2, Serine/threonine-protein kinase ULK3 (Homo sapiens, UniProt Q6PHR2).
T2 sequence (Q6PHR2 whole entry): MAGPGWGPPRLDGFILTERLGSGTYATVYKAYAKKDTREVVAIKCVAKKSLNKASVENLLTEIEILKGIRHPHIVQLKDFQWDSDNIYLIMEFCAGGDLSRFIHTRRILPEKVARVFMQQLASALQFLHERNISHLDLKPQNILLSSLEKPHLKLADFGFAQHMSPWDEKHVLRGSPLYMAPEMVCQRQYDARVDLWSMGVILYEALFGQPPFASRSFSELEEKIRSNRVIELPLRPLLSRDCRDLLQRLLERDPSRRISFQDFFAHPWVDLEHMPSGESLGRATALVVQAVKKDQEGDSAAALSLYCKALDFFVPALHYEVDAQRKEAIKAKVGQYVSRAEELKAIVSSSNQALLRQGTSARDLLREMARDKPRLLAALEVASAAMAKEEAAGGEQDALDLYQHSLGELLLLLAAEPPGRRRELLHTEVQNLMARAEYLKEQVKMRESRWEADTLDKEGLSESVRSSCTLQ

The target in test [4] is Cyclin-dependent kinase 1 (Homo sapiens, UniProt P06493).
Sequence of Cyclin-dependent kinase 1 (P06493 whole entry): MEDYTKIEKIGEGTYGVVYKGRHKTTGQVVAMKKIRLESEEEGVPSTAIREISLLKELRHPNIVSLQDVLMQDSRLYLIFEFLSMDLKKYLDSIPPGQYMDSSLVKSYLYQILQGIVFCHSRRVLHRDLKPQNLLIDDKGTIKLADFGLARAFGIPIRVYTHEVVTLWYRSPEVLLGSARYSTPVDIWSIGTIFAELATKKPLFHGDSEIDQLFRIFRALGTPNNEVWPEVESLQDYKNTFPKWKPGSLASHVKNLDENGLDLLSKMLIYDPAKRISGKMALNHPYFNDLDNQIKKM
For test [5], the target named is Maternal embryonic leucine zipper kinase (Homo sapiens, UniProt Q14680).
Sequence of Maternal embryonic leucine zipper kinase (Q14680 whole entry): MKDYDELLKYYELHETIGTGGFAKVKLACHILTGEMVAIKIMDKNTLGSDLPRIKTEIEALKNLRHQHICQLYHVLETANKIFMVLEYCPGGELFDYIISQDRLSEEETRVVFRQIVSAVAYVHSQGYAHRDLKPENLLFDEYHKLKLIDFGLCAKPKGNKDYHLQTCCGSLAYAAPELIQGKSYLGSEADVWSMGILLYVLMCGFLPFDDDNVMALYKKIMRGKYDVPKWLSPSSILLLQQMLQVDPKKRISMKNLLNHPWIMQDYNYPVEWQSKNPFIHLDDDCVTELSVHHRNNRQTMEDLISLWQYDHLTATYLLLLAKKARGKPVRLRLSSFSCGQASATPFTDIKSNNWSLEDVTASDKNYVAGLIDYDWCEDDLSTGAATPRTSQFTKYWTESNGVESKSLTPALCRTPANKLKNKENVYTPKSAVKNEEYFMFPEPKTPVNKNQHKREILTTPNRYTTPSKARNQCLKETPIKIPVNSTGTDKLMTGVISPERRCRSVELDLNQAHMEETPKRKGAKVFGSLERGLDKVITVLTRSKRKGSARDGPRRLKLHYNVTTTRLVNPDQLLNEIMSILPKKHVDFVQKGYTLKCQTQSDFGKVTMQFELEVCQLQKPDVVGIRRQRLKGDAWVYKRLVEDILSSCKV
In test [6] the target is Tyrosine-protein kinase JAK1 (Homo sapiens, UniProt P23458).
Sequence of Tyrosine-protein kinase JAK1 (P23458 whole entry): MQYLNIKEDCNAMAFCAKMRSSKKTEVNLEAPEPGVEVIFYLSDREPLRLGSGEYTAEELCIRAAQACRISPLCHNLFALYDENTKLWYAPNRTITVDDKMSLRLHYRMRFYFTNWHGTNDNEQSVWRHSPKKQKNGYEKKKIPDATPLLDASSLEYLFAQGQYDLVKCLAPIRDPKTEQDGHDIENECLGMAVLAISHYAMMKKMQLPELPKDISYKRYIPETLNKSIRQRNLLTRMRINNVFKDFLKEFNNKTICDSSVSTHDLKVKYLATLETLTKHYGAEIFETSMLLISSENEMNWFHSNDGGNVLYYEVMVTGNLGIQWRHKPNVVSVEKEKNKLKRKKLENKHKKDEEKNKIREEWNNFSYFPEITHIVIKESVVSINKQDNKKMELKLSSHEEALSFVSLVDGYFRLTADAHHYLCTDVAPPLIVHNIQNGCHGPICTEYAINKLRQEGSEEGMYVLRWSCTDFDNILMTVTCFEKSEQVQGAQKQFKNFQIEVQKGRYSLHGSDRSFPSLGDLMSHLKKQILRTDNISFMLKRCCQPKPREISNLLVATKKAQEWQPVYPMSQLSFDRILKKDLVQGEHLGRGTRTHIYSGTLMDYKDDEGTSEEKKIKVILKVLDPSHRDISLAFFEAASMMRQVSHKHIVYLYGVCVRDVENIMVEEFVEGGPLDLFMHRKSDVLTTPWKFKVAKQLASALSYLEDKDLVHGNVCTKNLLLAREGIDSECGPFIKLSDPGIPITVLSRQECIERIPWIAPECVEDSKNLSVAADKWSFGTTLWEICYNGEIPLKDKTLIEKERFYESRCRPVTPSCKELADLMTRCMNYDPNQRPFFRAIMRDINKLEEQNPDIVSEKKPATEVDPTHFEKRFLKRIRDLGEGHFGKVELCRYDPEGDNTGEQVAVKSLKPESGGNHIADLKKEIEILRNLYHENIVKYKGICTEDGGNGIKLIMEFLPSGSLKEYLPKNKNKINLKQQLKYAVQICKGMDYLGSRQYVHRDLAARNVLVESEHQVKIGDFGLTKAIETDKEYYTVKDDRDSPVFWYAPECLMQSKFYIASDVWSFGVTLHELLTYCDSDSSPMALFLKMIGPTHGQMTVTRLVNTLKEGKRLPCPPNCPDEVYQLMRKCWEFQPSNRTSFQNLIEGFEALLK
Test [7] addresses T3, Thyroid hormone receptor-associated protein 3 (Homo sapiens, UniProt Q9Y2W1).
T3 sequence (Q9Y2W1 whole entry): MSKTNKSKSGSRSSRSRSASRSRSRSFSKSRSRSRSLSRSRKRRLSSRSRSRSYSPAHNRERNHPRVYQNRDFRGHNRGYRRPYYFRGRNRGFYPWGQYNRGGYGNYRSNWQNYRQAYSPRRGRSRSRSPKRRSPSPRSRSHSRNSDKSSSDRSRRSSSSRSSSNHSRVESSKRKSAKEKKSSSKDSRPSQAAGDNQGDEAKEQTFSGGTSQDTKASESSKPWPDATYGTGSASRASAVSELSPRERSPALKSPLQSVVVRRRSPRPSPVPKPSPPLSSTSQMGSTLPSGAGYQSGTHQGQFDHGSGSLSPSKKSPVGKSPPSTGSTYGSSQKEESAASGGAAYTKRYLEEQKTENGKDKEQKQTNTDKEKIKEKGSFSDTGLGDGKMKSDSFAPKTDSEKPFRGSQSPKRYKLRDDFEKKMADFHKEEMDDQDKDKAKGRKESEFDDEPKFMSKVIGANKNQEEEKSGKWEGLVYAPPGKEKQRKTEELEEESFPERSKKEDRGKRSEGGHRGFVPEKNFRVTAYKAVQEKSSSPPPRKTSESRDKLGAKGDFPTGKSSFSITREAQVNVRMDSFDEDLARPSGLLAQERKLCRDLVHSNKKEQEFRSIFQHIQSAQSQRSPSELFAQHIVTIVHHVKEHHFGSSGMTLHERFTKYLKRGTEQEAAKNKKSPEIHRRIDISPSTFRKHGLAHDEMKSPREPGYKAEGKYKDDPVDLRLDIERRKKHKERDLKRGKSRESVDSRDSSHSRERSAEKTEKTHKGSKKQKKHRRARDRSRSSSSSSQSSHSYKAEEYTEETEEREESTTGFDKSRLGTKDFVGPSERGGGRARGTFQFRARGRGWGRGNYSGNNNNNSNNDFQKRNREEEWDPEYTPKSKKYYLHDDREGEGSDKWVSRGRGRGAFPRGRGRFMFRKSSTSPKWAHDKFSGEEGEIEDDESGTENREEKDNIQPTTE

The target in test [8] is T4, cGMP-dependent protein kinase 1 (Homo sapiens, UniProt Q13976).
T4 sequence (Q13976 whole entry): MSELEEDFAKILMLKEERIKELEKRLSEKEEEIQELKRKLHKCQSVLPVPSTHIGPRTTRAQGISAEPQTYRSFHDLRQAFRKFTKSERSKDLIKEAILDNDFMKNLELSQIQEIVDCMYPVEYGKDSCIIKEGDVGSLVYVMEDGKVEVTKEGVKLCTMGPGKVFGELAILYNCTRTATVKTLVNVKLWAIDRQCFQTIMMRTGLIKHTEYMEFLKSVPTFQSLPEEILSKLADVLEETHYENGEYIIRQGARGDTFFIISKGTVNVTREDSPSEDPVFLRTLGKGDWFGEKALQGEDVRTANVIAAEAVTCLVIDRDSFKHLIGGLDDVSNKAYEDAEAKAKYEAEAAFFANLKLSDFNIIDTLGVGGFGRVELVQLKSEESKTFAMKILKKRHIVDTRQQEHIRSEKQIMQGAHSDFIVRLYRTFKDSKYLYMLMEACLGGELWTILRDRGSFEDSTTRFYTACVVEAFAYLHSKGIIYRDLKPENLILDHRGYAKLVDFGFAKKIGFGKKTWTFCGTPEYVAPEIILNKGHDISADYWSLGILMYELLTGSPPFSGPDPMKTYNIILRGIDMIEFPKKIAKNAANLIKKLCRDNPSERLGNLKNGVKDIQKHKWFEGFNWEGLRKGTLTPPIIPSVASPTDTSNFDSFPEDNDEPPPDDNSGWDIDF

Test [9] addresses Cyclin-dependent kinase 3 (Homo sapiens, UniProt Q00526).
Also: in the data inactive means no Kd found up to 30 µM.

Sequence of Serine/threonine-protein kinase SIK3 (Q9Y2K2 whole entry): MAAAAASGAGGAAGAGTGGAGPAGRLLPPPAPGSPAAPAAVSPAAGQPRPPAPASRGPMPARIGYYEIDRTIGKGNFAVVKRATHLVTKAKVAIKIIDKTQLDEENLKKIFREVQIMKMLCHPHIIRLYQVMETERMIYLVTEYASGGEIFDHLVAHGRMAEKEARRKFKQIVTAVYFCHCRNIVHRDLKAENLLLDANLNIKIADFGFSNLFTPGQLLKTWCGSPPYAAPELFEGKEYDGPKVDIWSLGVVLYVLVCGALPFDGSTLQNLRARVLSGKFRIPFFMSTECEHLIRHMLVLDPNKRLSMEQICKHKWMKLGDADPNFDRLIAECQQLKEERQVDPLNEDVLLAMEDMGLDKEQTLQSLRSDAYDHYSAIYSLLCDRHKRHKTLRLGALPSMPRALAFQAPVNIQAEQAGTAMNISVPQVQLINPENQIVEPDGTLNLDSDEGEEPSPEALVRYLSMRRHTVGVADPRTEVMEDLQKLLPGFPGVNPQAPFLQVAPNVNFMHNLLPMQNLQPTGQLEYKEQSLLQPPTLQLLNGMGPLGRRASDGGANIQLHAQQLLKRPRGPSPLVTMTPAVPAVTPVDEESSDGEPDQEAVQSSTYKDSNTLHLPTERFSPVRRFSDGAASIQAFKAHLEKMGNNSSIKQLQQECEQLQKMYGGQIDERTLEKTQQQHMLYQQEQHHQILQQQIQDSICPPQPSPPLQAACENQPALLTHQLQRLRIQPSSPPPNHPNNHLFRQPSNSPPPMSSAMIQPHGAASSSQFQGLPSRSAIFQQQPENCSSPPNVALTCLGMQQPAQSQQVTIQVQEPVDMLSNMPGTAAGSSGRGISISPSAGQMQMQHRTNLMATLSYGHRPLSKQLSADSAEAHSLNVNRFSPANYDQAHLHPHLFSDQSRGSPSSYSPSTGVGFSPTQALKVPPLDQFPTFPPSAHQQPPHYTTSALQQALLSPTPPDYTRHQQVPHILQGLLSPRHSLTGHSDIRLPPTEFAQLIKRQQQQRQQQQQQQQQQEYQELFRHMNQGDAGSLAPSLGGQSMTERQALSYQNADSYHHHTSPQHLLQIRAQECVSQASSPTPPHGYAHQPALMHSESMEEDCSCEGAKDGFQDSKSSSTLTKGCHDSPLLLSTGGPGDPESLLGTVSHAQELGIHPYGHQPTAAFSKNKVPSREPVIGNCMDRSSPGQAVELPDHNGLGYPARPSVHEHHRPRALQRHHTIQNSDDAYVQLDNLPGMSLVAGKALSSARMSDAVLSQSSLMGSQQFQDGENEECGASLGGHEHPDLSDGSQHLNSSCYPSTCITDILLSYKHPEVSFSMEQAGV
Sequence of Cyclin-dependent kinase 3 (Q00526 whole entry): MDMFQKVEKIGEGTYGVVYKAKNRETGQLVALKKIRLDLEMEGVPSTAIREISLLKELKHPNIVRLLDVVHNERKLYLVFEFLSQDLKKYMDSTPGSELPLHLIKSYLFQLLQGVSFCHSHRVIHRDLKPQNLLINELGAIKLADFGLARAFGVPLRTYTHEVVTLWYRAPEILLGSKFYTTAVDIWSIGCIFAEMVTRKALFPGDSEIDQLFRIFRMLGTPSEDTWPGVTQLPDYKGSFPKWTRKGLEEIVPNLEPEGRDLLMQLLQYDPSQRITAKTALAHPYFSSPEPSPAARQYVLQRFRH

Usually Kd stands for the concentration at which binding is half-saturated. As for `C[C@H]1CNCCCN1S(=O)(=O)c1cccc2cncc(F)c12`, the Kd in test [1], in test [2], in test [3], in [4], in test [5] and in test [6] was > 30 µM (inactive) in each case. Also, the Kd in [7], in [8] and in test [9] was > 30 µM (inactive) throughout.

Regarding `CCNC(=O)C#Cc1ccc2c(c1)NC(=O)/C2=C(\Nc1ccc(CN(C)C)cc1)c1ccccc1`, the Kd was > 30 µM (inactive) in test [1]; 0.177 µM (active) in test [2]; 0.612 µM (active) in test [3]; > 30 µM (inactive) in [4]; 0.918 µM (active) in [5]; > 30 µM (inactive) in [6]. Also, the Kd in test [7] is > 30 µM (inactive); in test [8] it was > 30 µM (inactive); in [9] it was 0.897 µM (active).

In the case of `C=CC(=O)N1CCC[C@H](n2c(=O)n(-c3ccc(Oc4ccccc4)cc3)c3c(N)ncnc32)C1`, the Kd in [1], in [2], in test [3], in [4], in [5] and in [6] was > 30 µM (inactive) in each case. In addition, the Kd in [7], in test [8] and in [9] was > 30 µM (inactive) each time.

In the case of `COCc1c(-c2ccc(NC(=O)Nc3cc(C(F)(F)F)ccc3F)c(F)c2)c2c(N)ncnn2c1CN1CCOCC1`, the Kd in test [1], in test [2], in test [3], in [4], in [5] and in test [6] was > 30 µM (inactive) each time. Besides, the Kd in test [7], in test [8] and in test [9] was > 30 µM (inactive) in each case.

On to `Cc1nc(NC(=O)N2CCC[C@H]2C(N)=O)sc1-c1ccnc(C(C)(C)C(F)(F)F)c1` [ALPELISIB], for which the Kd in test [1], in [2], in test [3], in test [4], in test [5] and in [6] was > 30 µM (inactive) in each case. Also, the Kd in [7], in test [8] and in test [9] was > 30 µM (inactive) in each case.

Turning to `Cc1csc(-c2nnc(Nc3ccc(Oc4ncccc4-c4ccnc(N)n4)cc3)c3ccccc23)c1` [AMG-900], the Kd in [1], in test [2], in [3], in test [4], in test [5] and in [6] was > 30 µM (inactive) throughout. The Kd was 2.75 µM in [7], > 30 µM (inactive) in test [8] and > 30 µM (inactive) in [9].

In the case of `NC(=O)Nc1cc(-c2cccc(F)c2)sc1C(=O)N[C@H]1CCCNC1` [AZD-7762], the Kd is 0.043 µM (active) in test [1]; 0.147 µM (active) in test [2]; 1.79 µM (active) in test [3]; > 30 µM (inactive) in test [4]; 4.53 µM (active) in [5]; > 30 µM (inactive) in test [6]. The Kd in test [7] is > 30 µM (inactive); in test [8] it was > 30 µM (inactive); in test [9], 0.139 µM (active).

Consider `Cc1cc(C(=O)NOCCO)c(Nc2ccc(I)cc2F)n(C)c1=O` [AZD-8330], for which the Kd in test [1] is > 30 µM (inactive); in test [2], 2.66 µM (active); in test [3], > 30 µM (inactive); in test [4] it was > 30 µM (inactive); in test [5] it was > 30 µM (inactive); in test [6], > 30 µM (inactive). In addition, the Kd in test [7], in test [8] and in test [9] was > 30 µM (inactive) each time.

On to `Cn1cnc2c(F)c(Nc3ccc(Br)cc3F)c(C(=O)NOCCO)cc21` [BINIMETINIB], for which the Kd in test [1], in test [2], in [3], in test [4], in test [5] and in test [6] was > 30 µM (inactive) each time. Also, the Kd in test [7], in [8] and in test [9] was > 30 µM (inactive) each time.

In the case of `O=C(Nc1cc(C(F)(F)F)cc(C(F)(F)F)c1)c1cc(Cl)ccc1O` [IMD-0354], the Kd in [1], in test [2], in test [3], in test [5], in test [6] and in test [7] was > 30 µM (inactive) each time. Also, the Kd in test [8] and in [9] was > 30 µM (inactive) in each case.

On to `N#CC1(c2ccc(NC(=O)c3cccnc3NCc3ccncc3)cc2)CCCC1` [RIVOCERANIB], for which the Kd in [1], in test [2], in [3], in [4], in test [5] and in [6] was > 30 µM (inactive) each time. The Kd in test [7] and in [8] was > 30 µM (inactive) throughout.

Regarding `CO[C@H]1C[C@@H]2CC[C@@H](C)[C@@](O)(O2)C(=O)C(=O)N2CCCC[C@H]2C(=O)O[C@H]([C@H](C)C[C@@H]2CC[C@@H](O)[C@H](OC)C2)CC(=O)[C@H](C)/C=C(\C)[C@@H](O)[C@@H](OC)C(=O)[C@H](C)C[C@H](C)/C=C/C=C/C=C/1C` [SIROLIMUS], the Kd in test [1], in [2], in [3], in [4], in test [5] and in test [6] was > 30 µM (inactive) each time. For the same compound, the Kd in test [7] and in test [8] was > 30 µM (inactive) each time.
